From patent publication US10597649B2, “Tau protease compositions and methods of use” (Oligomerix, Inc., priority 2011, dated 2020)

Assays:
Assay type in all cases: biochemical
[1] = test system: Human α-endorphin peptide; assay: Cleavage of α-endorphin peptide (HPLC); conditions: 20 hrs at 37° C.
Description: Human α-endorphin peptide [[…](SEQ ID NO:13) (Abbiotech, LLC, San Diego, Calif., USA)] was incubated at 37° C. for 20 hrs with or without […] tau 4R2N trimer protease, and analyzed by reverse phase HPLC (SystemGold® 32Karat™ LC-CE System, Beckman Coulter, Inc., Indianapolis, Ind., USA) using a linear gradient of acetonitrile in 0.1% TFA, 0-60% acetonitrile on an analytical C18 column (12.5 cm×2.1 mm, 5 μm (Supelco). The peptide was hypothesized to be cut by tau protease because it contains Lys-Ser in its sequence which is found at autocatalytic cleavage sites in tau. Two fragment peaks were produced as predicted by tau 4R2N trimer protease. […] The asterisk indicates an artifactual peak unrelated to the peptide;
12 μg of α-endorphin peptide (Anaspec, Fremont, Calif.) was incubated with 1.2 μg of tau 4R/2N trimer in reaction buffer (25 mM Tris-HCl pH 7.4) for 20 hrs at 37° C. Reverse phase HPLC was used to monitor the cleavage of the peptide. […] The asterisk indicates an artifact peak that is derived from the incubation tube.

[2] = test system: Human APP 667-676 peptide; assay: Cleavage of APP 667-676 peptide (HPLC); conditions: 20 hr at 37° C.
Description: Human APP 667-676 peptide [[…](SEQ ID NO:14) (Anaspec, Fremont, Calif., USA)] was incubated 20 hr at 37° C. with or without […] tau 4R2N trimer protease and analyzed by reverse phase HPLC (SystemGold® 32Karat™ LC-CE System, Beckman Coulter, Inc.) using a linear gradient of 0 to 60% acetonitrile in 0.1% TFA on an analytical C18 column (12.5 cm×2.1 mm, […], Supelco). […] The asterisk indicates an artifactual peak unrelated to the peptide. Tau 4R2N trimer protease cut APP at the penultimate amino acid adjacent to the β-secretase (BACE) cut site thereby generating Aβ(1-42). Tau protease activity has been observed extracellularly in the CSF. Generation of Aβ(1-42) can stimulate inflammation within a neuron leading to BACE up-regulation. Furthermore Aβ(1-42) has been observed in plaques and can be converted to Aβ(1-42) by BACE cleavage of the N-terminal methionine. The implications are that tau protease may be the initial activation step for the amyloid cascade;

tubulin = assay: Cleavage of tubulin by tau 4R2N trimer (SDS-PAGE); conditions: 19.25 hrs at 37° C.
Description: In a result not shown, tau 4R2N trimer cut tubulin. In that study, Lane 1—tubulin, no incubation; Lane 2—tubulin incubated without tau; Lane 3—tubulin with tau 4R/2N trimer, no incubation; Lane 4—tubulin incubated with tau 4R2N trimer. […] Incubation of tubulin with tau4R2N trimer led to the formation of tubulin fragments and degradation of tubulin dimer.
Lyophilized tubulin (Cat# TL238, Cytoskeleton Inc.) was suspended in 200 μL buffer for 6 mg/mL solution. Samples were incubated for 19.25 hrs at 37° C. 10 μL 2× Laemmli sample buffer (BME) was added to each sample. Samples heated at 95° C. for 5 min in a thermal cycler with heated lid 5 min prior to loading.

Tau 4R2N = molecular target: T1, Tau 4R2N (Homo sapiens, UniProt P10636); assay: Autoproteolytic activity of purified tau monomer, dimer and trimer (SDS-PAGE)
T1 construct: Stabilization buffer enables production of full length monomer, dimer and trimer for tau protease; made in house; host or cells: E. coli BL21 (DE3) Gold
Description: This example describes the identification of the autoproteolytic activity of tau oligomers.
Purified recombinant human tau 4R2N was prepared as described in the flow chart. Monomer, dimer and trimer species were purified preparative electrophoresis from a tau 4R2N preparation that had formed oligomers. The electrophoresis buffer contained 0.1% SDS which inhibited the proteolytic activity. Fractions containing the tau species were buffer exchanged into 25 mM Tris-HCl pH 7.4 using and Amicon ultrafiltration device (Merck Millipore, Billerica, Mass.), which led to restoration of tau autoproteolytic activity. Protein concentrations of the preparations were determined using the BCA kit (ThemoFisher Scientific). Samples were run on a pre-cast 4-20% polyacrylamide Tris-HCl gel (BioRad, Hercules, Calif.) without using reductant in order to visualize the disulfide mediated oligomers. The gel was stained with GelCodeBlue Safe (ThermoFisher Scientific, Rockford, Ill.). Lane 1: 5.2 μg of tau 4R2N oligomer standard; Lane 2: 2 microliter of monomer fraction before buffer exchange; Lane 3: 0.5 μg monomer after buffer exchange; Lane 4: […] of dimer fraction before buffer exchange; Lane 5: 0.5 μg dimer after buffer exchange; Lane 6: 20 μL trimer fraction before buffer exchange; Lane 7: 0.5 μg trimer after buffer exchange.
Tau 4R2N undergoes autoproteolytic cleavage (self-cleavage) when it forms disulfide-mediated oligomers upon incubation. Tau autoproteolyic activity co-purified with the dimer and trimer species. The amount of autoproteolytic activity was greatest with trimer which fragmented to the extent where no full size trimer remained after incubation. […] It was also shown that Tau autoproteolytic activity co-purified with dimer and trimer species. […] Full-length trimer digested completely into smaller fragments, and upon incubation, monomer formed an oligomeric ladder that produced a low level of autoproteolytic activity.
(§1) Monomer, Dimer, and Trimer of Tau 441 were purified under non-reducing conditions using continuous-elution electrophoresis. Fractions of each oligomer sample were pooled and buffer exchanged into stabilization buffer using an Amicon spin concentrator with a molecular weight cut-off of 30,000 daltons. 0.35 μg of each sample was incubated overnight at 37° C. while non-incubated control was kept on ice at 4° C. Next day, 2×SDS sample buffer without reductant was added to each sample and loaded onto a 4-20% gradient Tris-HCl Criterion Gel (Bio-Rad, Hercules, Calif.).
as §1, with “This example presents results from a contamination control study of tau protease. Monomer,” for “Monomer,”, “2× sodium dodecyl sulfate” for “2×SDS”
Lane 1—tau oligomer ladder standard; Lane 2—empty; Lane 3—purified monomer no incubation (fraction from purification plate); Lane 4—purified monomer without incubation; Lane 5—purified monomer with incubation; Lane 6—purified dimer without incubation; Lane 7—purified dimer with incubation; Lane 8—purified trimer without incubation; purified trimer with incubation overnight at 37° C. Lanes 3-9 were treated with sample buffer containing β-mercaptoethanol (BME).

T1 sequence (P10636 1-441 isoform P10636-8): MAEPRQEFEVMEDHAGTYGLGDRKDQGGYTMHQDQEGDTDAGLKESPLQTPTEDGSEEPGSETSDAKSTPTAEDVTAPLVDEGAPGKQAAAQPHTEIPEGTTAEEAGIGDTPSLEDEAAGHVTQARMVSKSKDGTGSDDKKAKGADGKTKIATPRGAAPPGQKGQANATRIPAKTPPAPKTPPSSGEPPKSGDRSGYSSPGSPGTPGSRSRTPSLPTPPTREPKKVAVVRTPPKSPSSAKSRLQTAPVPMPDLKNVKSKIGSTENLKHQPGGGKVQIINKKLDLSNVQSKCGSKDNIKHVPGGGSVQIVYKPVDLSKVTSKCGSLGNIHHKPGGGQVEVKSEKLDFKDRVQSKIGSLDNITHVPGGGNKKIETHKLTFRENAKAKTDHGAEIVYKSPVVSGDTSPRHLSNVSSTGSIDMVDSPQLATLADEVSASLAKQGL

- degradation in contamination control study (Example 3) (Tau 4R2N; 0.35 μg, overnight at 37° C., equal sample volumes from purification): preferentially degraded
- autoproteolytic activity (Example 1) (Tau 4R2N; after buffer exchange into 25 mM Tris-HCl pH 7.4, incubation at 37° C.): greatest
Substance: tau 4R2N trimer: purified disulfide-mediated trimer species of recombinant human tau 4R2N
- cutting of α-endorphin peptide [1]: cuts α-endorphin peptide
- cutting of APP 667-676 peptide [2]: cuts APP 667-676 peptide
- cutting of tubulin (tubulin): cut tubulin
